Values of other authors as cited in patent US20210113536A1, “METHODS AND COMPOSITIONS FOR DETECTING AND TREATING VENOUS THROMBOEMBOLISM” (United States Government As Represented By The Department …, priority 2019, published 2021).

Test system: asymptomatic participants
Details: 20 mg of rosuvastatin, JUPITER trial

CC(C)c1nc(N(C)S(C)(=O)=O)nc(-c2ccc(F)cc2)c1/C=C/[C@@H](O)C[C@@H](O)CC(=O)O [rosuvastatin]
occurrence of symptomatic VTE: reduced occurrence of symptomatic VTE
